From patent publication US9562035B2, “Benzamide derivative useful as FASN inhibitors for the treatment of cancer” (Janssen Pharmaceutica NV, priority 2013, dated 2017)

Assays:
A2780 ovarian cells [1] = assay: A2780 Ovarian Cell Proliferation Assay in Lipid Reduced Medium, without Palmitate; type: cell-based; details: Homo sapiens, A2780; lipid reduced medium, without palmitate, 96 h, MTT; read-out: Proliferation A2780 w/o Palmitate pIC50 (converted)
Summary of the method: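 A2780 cells were seeded in 10% FCS medium and switched next day to 10% lipid-reduced serum without palmitate. Compounds at 0.01–30 μM were added with 0.2% DMSO, 0.2% fatty-acid-free BSA and 0.25% ethanol final. After 96 h, MTT absorbance at 544 nm was normalized to plate controls, and IC50/pIC50 came from a 4-parameter logistic fit.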

[2] = biological target: T1, hFASN enzyme (full length) (Homo sapiens, UniProt P49327); assay: Fatty Acid Synthase (FASN) Inhibition Scintillation Proximity Assay; type: biochemical; details: for IC50: mean where tested more than once, ~ = standard error of pIC50 larger than 0.5; for inhibition at 10 µM: read-out: FASN % Effect @1E−05M
T1 construct: 10 μL hFASN enzyme (full length, 300 ng, purified in house); made in house
Summary of the method: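 Purified full-length human FASN (300 ng) incubated 60 min at room temperature with NADPH, [3H]-acetyl-CoA and malonyl-CoA in 100 mM KH2PO4 pH 7.5, 1 mM DTT; compound at 30 μM to 0.01 μM. [3H]-palmitate captured by SPA imaging beads; IC50 from 4-parameter fit, reported as pIC50.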

A2780 ovarian cells [3] = assay: A2780 Ovarian Cell Proliferation Assay in Lipid Reduced Medium, with Palmitate (control); type: cell-based; details: Homo sapiens, A2780; lipid reduced medium, 25 μM palmitate, 96 h, MTT; read-out: Proliferation A2780 with Palmitate pIC50 (converted)
Summary of the method: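 A2780 cells were seeded in RPMI1640 with 10% FCS, then switched next day to medium with 10% lipid-reduced serum. Compound was added with final 25 μM palmitate, 0.2% fatty-acid-free BSA and 0.2% DMSO, and incubated 96 h at 37 °C. Read-out was MTT absorbance at 544 nm; pIC50 = −log(IC50) from curve fit.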

[4] = biological target: T2, FASN Keto-reductase Domain (Homo sapiens, UniProt P49327); assay: Fatty Acid Synthase Keto-Reductase Domain (FASN KR) Inhibition; type: biochemical; details: mean where tested more than once; read-out: FASN K-R Domain pIC50 (converted)
T2 construct: 10 μL hFASN enzyme (full length, 300 ng, purified in house) and 360 μM NADPH; made in house
Summary of the method: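 Full-length human FASN (300 ng) in 100 mM KH2PO4 pH 7.5 with 360 μM NADPH and 180 mM ethyl acetoacetate (stock); A340 decrease read over 20 min at room temperature.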

T1 sequence (P49327 whole entry): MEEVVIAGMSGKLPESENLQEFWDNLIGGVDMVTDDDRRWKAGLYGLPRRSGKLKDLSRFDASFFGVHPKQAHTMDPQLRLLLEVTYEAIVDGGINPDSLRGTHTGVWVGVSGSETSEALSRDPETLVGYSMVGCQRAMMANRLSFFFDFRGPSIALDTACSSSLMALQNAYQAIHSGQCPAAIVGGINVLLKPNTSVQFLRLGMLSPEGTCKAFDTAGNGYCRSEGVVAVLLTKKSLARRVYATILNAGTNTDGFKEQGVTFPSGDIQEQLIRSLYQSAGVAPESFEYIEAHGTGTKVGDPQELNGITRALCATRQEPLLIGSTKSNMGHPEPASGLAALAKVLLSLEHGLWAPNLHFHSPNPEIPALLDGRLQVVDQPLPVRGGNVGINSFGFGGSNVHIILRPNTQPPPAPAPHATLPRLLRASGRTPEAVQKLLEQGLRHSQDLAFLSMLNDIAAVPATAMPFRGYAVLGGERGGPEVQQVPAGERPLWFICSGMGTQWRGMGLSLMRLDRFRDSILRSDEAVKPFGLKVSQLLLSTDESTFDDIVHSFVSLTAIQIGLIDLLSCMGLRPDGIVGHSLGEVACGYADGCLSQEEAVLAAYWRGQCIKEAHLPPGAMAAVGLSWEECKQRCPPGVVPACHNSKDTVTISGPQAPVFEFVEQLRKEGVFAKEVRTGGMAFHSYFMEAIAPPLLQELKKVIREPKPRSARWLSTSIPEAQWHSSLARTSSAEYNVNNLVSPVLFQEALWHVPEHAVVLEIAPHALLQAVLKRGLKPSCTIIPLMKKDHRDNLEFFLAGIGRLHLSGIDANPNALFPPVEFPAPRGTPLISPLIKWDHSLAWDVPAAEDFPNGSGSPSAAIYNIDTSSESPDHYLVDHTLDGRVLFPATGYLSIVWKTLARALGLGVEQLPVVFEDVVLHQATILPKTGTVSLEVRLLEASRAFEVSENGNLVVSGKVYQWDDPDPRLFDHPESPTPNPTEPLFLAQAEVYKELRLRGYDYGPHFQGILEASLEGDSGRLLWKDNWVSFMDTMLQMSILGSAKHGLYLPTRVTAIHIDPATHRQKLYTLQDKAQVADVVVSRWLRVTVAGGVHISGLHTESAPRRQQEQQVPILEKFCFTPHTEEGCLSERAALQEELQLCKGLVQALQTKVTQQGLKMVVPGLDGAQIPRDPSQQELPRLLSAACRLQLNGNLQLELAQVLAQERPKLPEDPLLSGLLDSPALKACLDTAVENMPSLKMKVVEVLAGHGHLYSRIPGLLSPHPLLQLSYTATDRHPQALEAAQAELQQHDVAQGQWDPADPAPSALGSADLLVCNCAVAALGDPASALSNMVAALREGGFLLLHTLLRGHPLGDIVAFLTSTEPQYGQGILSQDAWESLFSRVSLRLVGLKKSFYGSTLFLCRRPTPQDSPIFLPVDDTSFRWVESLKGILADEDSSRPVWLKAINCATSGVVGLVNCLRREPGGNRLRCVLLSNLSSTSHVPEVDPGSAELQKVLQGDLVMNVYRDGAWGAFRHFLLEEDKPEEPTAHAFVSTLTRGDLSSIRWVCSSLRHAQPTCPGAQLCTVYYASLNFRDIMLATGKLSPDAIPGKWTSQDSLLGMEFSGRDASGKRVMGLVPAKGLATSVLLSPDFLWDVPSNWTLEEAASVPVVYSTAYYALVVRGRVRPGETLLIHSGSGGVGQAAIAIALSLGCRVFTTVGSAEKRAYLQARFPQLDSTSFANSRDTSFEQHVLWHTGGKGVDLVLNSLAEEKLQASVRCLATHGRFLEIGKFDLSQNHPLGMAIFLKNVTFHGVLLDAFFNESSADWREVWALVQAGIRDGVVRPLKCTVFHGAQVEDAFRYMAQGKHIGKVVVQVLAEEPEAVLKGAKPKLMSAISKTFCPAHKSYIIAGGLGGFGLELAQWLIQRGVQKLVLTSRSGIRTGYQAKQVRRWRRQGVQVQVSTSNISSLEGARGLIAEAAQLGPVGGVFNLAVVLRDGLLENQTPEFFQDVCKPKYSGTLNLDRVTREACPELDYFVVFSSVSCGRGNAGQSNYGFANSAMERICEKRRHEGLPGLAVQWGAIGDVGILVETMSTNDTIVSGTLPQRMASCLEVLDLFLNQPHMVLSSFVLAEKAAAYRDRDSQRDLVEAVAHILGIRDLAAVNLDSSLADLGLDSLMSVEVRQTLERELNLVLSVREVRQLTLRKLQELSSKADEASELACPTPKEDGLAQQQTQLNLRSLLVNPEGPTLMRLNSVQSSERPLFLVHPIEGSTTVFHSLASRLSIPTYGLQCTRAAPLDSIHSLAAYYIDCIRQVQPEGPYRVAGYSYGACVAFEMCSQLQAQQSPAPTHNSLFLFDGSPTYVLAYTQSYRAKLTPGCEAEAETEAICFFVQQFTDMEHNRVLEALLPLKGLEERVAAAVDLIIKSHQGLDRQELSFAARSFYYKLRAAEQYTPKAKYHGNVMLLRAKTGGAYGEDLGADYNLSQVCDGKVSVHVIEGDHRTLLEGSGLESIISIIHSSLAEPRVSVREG
T2 sequence (P49327 whole entry, the tested form may be a part): as the sequence (P49327 whole entry) above

| SMILES | IC50 (A2780 ovarian cells [1]) [nM] | IC50 [2] [nM] | inhibition at 10 µM [2] [%] | IC50 (A2780 ovarian cells [3]) [nM] | IC50 [4] [nM] |
| --- | --- | --- | --- | --- | --- |
| CCCCCCN1CCC(C(=O)Nc2cc(C(=O)N3CCC(c4ccc(-c5cnn(C)c5)cc4)CC3)ccc2C)C1 (stereo not shown) [Compound 218, 1-hexyl-N-(2-methyl-5-(4-(4-(1-methyl-1H-pyrazol-4-yl)phenyl)piperidine-1-carbonyl)phenyl)pyrrolidine-3-carboxamide] | 407 | 145 | 105 | 8510 | 389 |
| COc1ccccc1C(=O)Nc1cc(C(=O)N2CCC(c3ccc(-c4cnn(C)c4)cc3)CC2)ccc1C [Compound 105, 2-methoxy-N-(2-methyl-5-(4-(4-(1-methyl-1H-pyrazol-4-yl)phenyl)piperidine-1-carbonyl)phenyl)benzamide] | 955 | 309 | 86 | 3020 | 617 |
| CCCCCN1CCC(C(=O)Nc2cc(C(=O)N3CCC(c4ccc(-c5cnn(C)c5)cc4)CC3)ccc2C)C1 (stereo not shown) [Compound 215, N-(2-methyl-5-(4-(4-(1-methyl-1H-pyrazol-4-yl)phenyl)piperidine-1-carbonyl)phenyl)-1-pentylpyrrolidine-3-carboxamide] | 191 | 105 | 107 | 9330 | 309 |
| Cc1ccc(C(=O)N2CCC(c3ccc(-c4cnn(C)c4)cc3)CC2)cc1NC(=O)[C@@H]1CCCN1 [Compound 171, (S)—N-(2-methyl-5-(4-(4-(1-methyl-1H-pyrazol-4-yl)phenyl)piperidine-1-carbonyl)phenyl)pyrrolidine-2-carboxamide] | 1200 | 891 | 84 | > 10000 | 1000 |
| CC(C)Nc1ccc(C(=O)Nc2cc(C(=O)N3CCC(c4ccc(-c5ccc6cnccc6c5)cc4)CC3)ccc2Cl)cn1 [Compound 67, N-(2-chloro-5-(4-(4-(isoquinolin-6-yl)phenyl)piperidine-1-carbonyl)phenyl)-6-(isopropylamino)nicotinamide] | 234 | 151 | 92 | 240 | ~603 |
| Cc1ccc(C(=O)N2CCC(c3ccc(-c4cnn(C)c4)cc3)CC2)cc1NC(=O)C1CCN(C2CCC(C)C2)C1 (stereo not shown) [Compound 194, N-(2-methyl-5-(4-(4-(1-methyl-1H-pyrazol-4-yl)phenyl)piperidine-1-carbonyl)phenyl)-1-(3-methylcyclopentyl)pyrrolidine-3-carboxamide] | 158 | 117 | 102 | ~8710 | 214 |
| Cc1ccc(C(=O)N2CCC(c3ccc(-c4ccccc4C)cc3)CC2)cc1NC(=O)c1ccc(NC(C)C)nc1 [Compound 232, 6-(isopropylamino)-N-(2-methyl-5-(4-(2′-methyl-[1,1′-biphenyl]-4-yl)piperidine-1-carbonyl)phenyl)nicotinamide] | 389 | 324 | 85 | 6610 | 490 |
| Cc1ccc(C(=O)N2CC(c3ccc(-c4ccnn4C)cc3)C2)cc1NC(=O)c1cncc(Br)c1 [Compound 56, 5-bromo-N-(2-methyl-5-(3-(4-(1-methyl-1H-pyrazol-5-yl)phenyl)azetidine-1-carbonyl)phenyl)nicotinamide] | 437 | 309 | 95 | 912 | 457 |

The next molecules have a lower IC50 [2] than those just listed; values first:

| IC50 (A2780 ovarian cells [1]) [nM] | IC50 [2] [nM] | inhibition at 10 µM [2] [%] | IC50 (A2780 ovarian cells [3]) [nM] | IC50 [4] [nM] | SMILES |
| --- | --- | --- | --- | --- | --- |
| 91.2 | 75.9 | 109 | 5010 | 245 | Cc1ccc(C(=O)N2CCC(c3ccc(-c4cnn(CC5CCC5)c4)cc3)CC2)cc1NC(=O)c1ccc(NC(C)C)nc1 [Compound 221, N-(5-(4-(4-(1-(cyclobutylmethyl)-1H-pyrazol-4-yl)phenyl)piperidine-1-carbonyl)-2-methylphenyl)-6-(isopropylamino)nicotinamide] |
| 316 | 69.2 | 107 | 7240 | 257 | CC(C)Nc1ccc(C(=O)Nc2cc(C(=O)N3CCC(c4ccc(-c5cnn(C)c5)cc4)CC3)ccc2O)cn1 [Compound 269, N-(2-hydroxy-5-(4-(4-(1-methyl-1H-pyrazol-4-yl)phenyl)piperidine-1-carbonyl)phenyl)-6-(isopropylamino)nicotinamide] |
| 302 | 57.5 | 112 | > 10000 | 339 | Cc1ccc(C(=O)N2CCC(c3ccc(-c4cnn(C)c4)cc3)CC2)cc1NC(=O)C1CCNC1 (stereo not shown) [Compound 170, N-(2-methyl-5-(4-(4-(1-methyl-1H-pyrazol-4-yl)phenyl)piperidine-1-carbonyl)phenyl)pyrrolidine-3-carboxamide] |
| 93.3 | 56.2 | 103 | 7240 | 115 | Cc1ccc(C(=O)N2CC(c3ccc(-c4ccnn4C)cc3)C2)cc1NC(=O)c1ccc(N2CCN(C)CC2)nc1 [Compound 59, N-(2-methyl-5-(3-(4-(1-methyl-1H-pyrazol-5-yl)phenyl)azetidine-1-carbonyl)phenyl)-6-(4-methylpiperazin-1-yl)nicotinamide] |
| 437 | 56.2 | 109 | 3550 | 245 | CC(C)Nc1ccc(C(=O)Nc2cc(C(=O)N3CCC(c4ccc(-c5ccnn5C)cc4)CC3)ccc2Cl)cn1 [Compound 70, N-(2-chloro-5-(4-(4-(1-methyl-1H-pyrazol-5-yl)phenyl)piperidine-1-carbonyl)phenyl)-6-(isopropylamino)nicotinamide] |
| 513 | 39.8 | 110 | 2630 | 251 | CC(C)Nc1ccc(C(=O)Nc2cc(C(=O)N3CCC(c4ccc(-c5ccncc5)cc4)CC3)ccc2Cl)cn1 [Compound 72, N-(2-chloro-5-(4-(4-(pyridin-4-yl)phenyl)piperidine-1-carbonyl)phenyl)-6-(isopropylamino)nicotinamide] |
| 10 | 31.6 | 105 | > 10000 | 74.1 | Cc1ccc(C(=O)N2CCC(c3ccc(-c4cnn(C)c4)cc3)CC2)cc1NC(=O)C1CCN(C2CCC2)CC1 [Compound 209, 1-cyclobutyl-N-(2-methyl-5-(4-(4-(1-methyl-1H-pyrazol-4-yl)phenyl)piperidine-1-carbonyl)phenyl)piperidine-4-carboxamide] |
| 18.6 | 31.6 | 113 | > 10000 | 74.1 | CCCCN1CCC(C(=O)Nc2cc(C(=O)N3CCC(c4ccc(-c5cnn(C)c5)cc4)CC3)ccc2C)CC1 [Compound 211, 1-butyl-N-(2-methyl-5-(4-(4-(1-methyl-1H-pyrazol-4-yl)phenyl)piperidine-1-carbonyl)phenyl)piperidine-4-carboxamide] |
| 33.9 | 25.7 | 105 | 5370 | 81.3 | Cc1ccc(C(=O)N2CCC(c3ccc(-c4cnn(C)c4)cc3)CC2)cc1NC(=O)C1CCN(Cc2ccccc2)CC1 [Compound 124, 1-benzyl-N-(2-methyl-5-(4-(4-(1-methyl-1H-pyrazol-4-yl)phenyl)piperidine-1-carbonyl)phenyl)piperidine-4-carboxamide] |
| 34.7 | 25.1 | 112 | > 10000 | 102 | Cc1ccc(C(=O)N2CC(c3ccc(-c4cccnc4N)cc3)C2)cc1NC(=O)c1ccc(N2CCOCC2)nc1 [Compound 260, N-(5-(3-(4-(2-aminopyridin-3-yl)phenyl)azetidine-1-carbonyl)-2-methylphenyl)-6-morpholinonicotinamide] |
| 174 | 19.1 | 115 | 6310 | 132 | Cc1ccc(C(=O)N2CC[C@H](c3ccc(-c4ccnn4C)cc3)[C@@H](C)C2)cc1NC(=O)c1ccc(Cl)nc1 (racemic) [Compound #110, (±)-6-Chloro-N-(2-methyl-5-((3R,4S)-3-methyl-4-(4-(1-methyl-1H-pyrazol-5-yl)phenyl)piperidine-1-carbonyl)phenyl)nicotinamide] |
| 61.7 | 17.4 | 107 | 2190 | 45.7 | CC(C)Nc1ccc(C(=O)Nc2cc(C(=O)N3CC(c4ccc(-c5ccncc5)cc4)C3)ccc2Cl)cn1 [Compound #74, N-(2-chloro-5-(3-(4-(pyridin-4-yl)phenyl)azetidine-1-carbonyl)phenyl)-6-(isopropylamino)nicotinamide] |
